Publication doi:10.1101/2021.01.22.427858v1 (biorxiv, 2021)
Where two headings read alike, the source gives them in different places.

Columns and labels:
[1] = biological target: T1, Human Serum Albumin (HSA) (Homo sapiens, UniProt P02768); settings: binder
[2] = biological target: T1, Human Serum Albumin (HSA); assay: biochemical; assay type: binding
[3] = biological target: T1, Human Serum Albumin (HSA); assay: differential scanning calorimetry; assay type: binding
[4] = biological target: T1, Human Serum Albumin (HSA); assay: differential scanning calorimetry, bi-dose-response fit

T1 sequence (P02768 25-609): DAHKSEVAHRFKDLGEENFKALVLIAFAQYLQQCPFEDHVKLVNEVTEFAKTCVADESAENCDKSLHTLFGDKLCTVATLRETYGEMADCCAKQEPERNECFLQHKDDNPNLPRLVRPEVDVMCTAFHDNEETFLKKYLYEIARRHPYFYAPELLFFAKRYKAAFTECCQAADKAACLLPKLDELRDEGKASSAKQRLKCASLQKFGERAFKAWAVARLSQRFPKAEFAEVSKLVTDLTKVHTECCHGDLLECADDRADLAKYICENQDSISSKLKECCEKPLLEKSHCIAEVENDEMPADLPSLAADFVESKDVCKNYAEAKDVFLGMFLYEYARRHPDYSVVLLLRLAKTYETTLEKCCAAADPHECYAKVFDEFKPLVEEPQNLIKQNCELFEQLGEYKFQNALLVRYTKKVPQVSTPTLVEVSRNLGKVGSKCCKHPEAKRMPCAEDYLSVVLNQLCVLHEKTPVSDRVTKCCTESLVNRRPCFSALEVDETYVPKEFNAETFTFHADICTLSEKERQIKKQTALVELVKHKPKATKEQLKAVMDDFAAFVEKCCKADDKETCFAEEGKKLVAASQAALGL

SMILES: C=CC1=C(C)/C(=C/c2[nH]c(Cc3[nH]c(/C=C4\NC(=O)C(C)=C4C=C)c(C)c3CCC(=O)O)c(CCC(=O)O)c2C)NC1=O [Bilirubin]
- dTm (C) ([1]; ligand concentration not given): 0.30 °C

SMILES: Cc1c(C2(c3cc(Br)c(O)c(Br)c3C)OS(=O)(=O)c3ccccc32)cc(Br)c(O)c1Br [Bromocresol Green]
- Kd [2]: 3.31 ± 1.7 µM
- dTm (C) [1]: 6.29 °C

SMILES: CC(NC(C)(C)C)C(=O)c1cccc(Cl)c1 (stereo not drawn) [Buproprion]
- dTm (C) ([1]; ligand concentration not given): 0.62 °C

SMILES: Cn1c(=O)c2c(ncn2C)n(C)c1=O [Caffeine]
- dTm (C) ([1]; ligand concentration not given): 0.47 °C

SMILES: C[C@H](CS)C(=O)N1CCC[C@H]1C(=O)O [Captopril]
- dTm (C) ([1]; ligand concentration not given): -0.41 °C

SMILES: CCN(CC)CCCC(C)Nc1ccnc2cc(Cl)ccc12 (stereo not drawn) [Chloroquine]
- dTm (C) ([1]; ligand concentration not given): 1.43 °C

SMILES: CCCCCCCCCC(=O)O [Decanoic Acid]
- dTm (C) ([1]; ligand concentration not given): 24.56 °C

SMILES: C[C@H]1O[C@@H](O[C@H]2[C@@H](O)C[C@H](O[C@H]3[C@@H](O)C[C@H](O[C@H]4CC[C@@]5(C)[C@H](CC[C@@H]6[C@@H]5CC[C@]5(C)[C@@H](C7=CC(=O)OC7)CC[C@]65O)C4)O[C@@H]3C)O[C@@H]2C)C[C@H](O)[C@@H]1O [Digitoxin]
- dTm (C) [1]: 3.92 °C

SMILES: O=C1OC2(c3ccc(O)cc3Oc3cc(O)ccc32)c2ccccc21 [Fluorescein]
- Kd [2]: 3.31 ± 1.7 µM
- dTm (C) ([1]; ligand concentration not given): 7.95 °C

SMILES: CN(C)C(=N)NC(=N)N [Metformin]
- KD1 [3]: 2.01 ± 0.43 10^-6 M
- dTm (C) ([1]; ligand concentration not given): -0.31 °C

SMILES: COCCc1ccc(OCC(O)CNC(C)C)cc1 (stereo not drawn) [Metoprolol]
- dTm (C) ([1]; ligand concentration not given): -0.40 °C

SMILES: COc1ccc2cc([C@H](C)C(=O)O)ccc2c1 [Naproxen]
- dTm (C) [1]: 5.52 °C

SMILES: CCCCNc1ccc(C(=O)OCCN(C)C)cc1 [Tetracaine]
- dTm (C) ([1]; ligand concentration not given): 3.16 °C

SMILES: C[CH2][Hg][S]c1ccccc1C(=O)O [Thimerosal]
- KD1 [4]: 3.13 ± 0.43 10^-6 M

SMILES: C[C@]12CC[C@@H]3c4ccc(O)cc4CC[C@H]3[C@@H]1CC[C@@H]2O [β-Estradiol]
- dTm (C) ([1]; ligand concentration not given): 0.92 °C
